# Reference: PubChem BioAssay (NCI)
#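 Where inhibition never reached the appropriate level, the endpoint shown equals the highest concentration tested. Otherwise, values were interpolated linearly from a five-concentration, 48-hour dose response in 96-well plates. The concentration for 50% growth inhibition is given as GI50. TGI: concentration producing complete growth inhibition.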
# Legend:
# Experiment in all cases: DTP human tumour cell line panel, 48 h
# NCI-H522 lung = test system: NCI-H522 lung
# UACC-62 melanoma = test system: UACC-62 melanoma
# SK-MEL-2 melanoma = test system: SK-MEL-2 melanoma
# CCRF-CEM leukemia = test system: CCRF-CEM leukemia
# OVCAR-5 ovarian = test system: OVCAR-5 ovarian
# SF-268 CNS = test system: SF-268 CNS
# HCT-15 colon = test system: HCT-15 colon
# OVCAR-3 ovarian = test system: OVCAR-3 ovarian
# UO-31 renal = test system: UO-31 renal
# NCI/ADR-RES ovarian = test system: NCI/ADR-RES ovarian
# MCF7 breast = test system: MCF7 breast
# TK-10 renal = test system: TK-10 renal
# NCI-H460 lung = test system: NCI-H460 lung
# RXF 393 renal = test system: RXF 393 renal
# PC-3 prostate = test system: PC-3 prostate
# SR leukemia = test system: SR leukemia
# SK-MEL-5 melanoma = test system: SK-MEL-5 melanoma
# DU-145 prostate = test system: DU-145 prostate
# HOP-62 NSCLC = test system: HOP-62 NSCLC
# EKVX NSCLC = test system: EKVX NSCLC
# K-562 leukemia = test system: K-562 leukemia
# HOP-92 NSCLC = test system: HOP-92 NSCLC
# HCT-116 colon = test system: HCT-116 colon
# SNB-19 CNS = test system: SNB-19 CNS
# A498 renal = test system: A498 renal
# HT29 colon = test system: HT29 colon
# SF-295 CNS = test system: SF-295 CNS
# NCI-H226 lung = test system: NCI-H226 lung
# CAKI-1 renal = test system: CAKI-1 renal
# NCI-H23 lung = test system: NCI-H23 lung
# MDA-MB-231 breast = test system: MDA-MB-231 breast
# M14 melanoma = test system: M14 melanoma
# RPMI-8226 leukemia = test system: RPMI-8226 leukemia
# SN12C renal = test system: SN12C renal
# OVCAR-8 ovarian = test system: OVCAR-8 ovarian
# MDA-MB-435 = test system: MDA-MB-435
# LOX IMVI melanoma = test system: LOX IMVI melanoma
# IGROV1 ovarian = test system: IGROV1 ovarian
# SW-620 colon = test system: SW-620 colon
# KM12 colon = test system: KM12 colon
# OVCAR-4 ovarian = test system: OVCAR-4 ovarian
# A549 NSCLC = test system: A549 NSCLC
# UACC-257 melanoma = test system: UACC-257 melanoma
# SNB-75 CNS = test system: SNB-75 CNS
# ACHN renal = test system: ACHN renal
# HS 578T breast = test system: HS 578T breast
# COLO 205 colon = test system: COLO 205 colon
# BT-549 breast = test system: BT-549 breast
# MOLT-4 leukemia = test system: MOLT-4 leukemia
# 786-0 renal = test system: 786-0 renal
# T-47D breast = test system: T-47D breast
# HL-60(TB) leukemia = test system: HL-60(TB) leukemia
# SK-MEL-28 melanoma = test system: SK-MEL-28 melanoma
# HCC-2998 colon = test system: HCC-2998 colon
# SF-539 CNS = test system: SF-539 CNS
smiles,measurement,setting,value
CC(=O)OC1CC2C(C)(C)C(=O)C=C[C@]2(C)C2CC[C@]3(C)C(OCC(=O)[C@H]3c3ccoc3)[C@]12C (stereo not given in full),GI50,NCI-H522 lung,3.15 µM
same,TGI,NCI-H522 lung,10.1 µM
same,GI50,UACC-62 melanoma,5.89 µM
same,TGI,UACC-62 melanoma,21.7 µM
same,GI50,SK-MEL-2 melanoma,13.8 µM
same,TGI,SK-MEL-2 melanoma,42.3 µM
same,GI50,CCRF-CEM leukemia,4.06 µM
same,TGI,CCRF-CEM leukemia,16.3 µM
same,GI50,OVCAR-5 ovarian,23.9 µM
same,TGI,OVCAR-5 ovarian,46.2 µM
same,GI50,SF-268 CNS,2.82 µM
same,TGI,SF-268 CNS,10.5 µM
same,GI50,HCT-15 colon,4.19 µM
same,TGI,HCT-15 colon,15.8 µM
same,GI50,OVCAR-3 ovarian,5.56 µM
same,TGI,OVCAR-3 ovarian,22.9 µM
same,GI50,UO-31 renal,10.1 µM
same,TGI,UO-31 renal,22.6 µM
same,GI50,NCI/ADR-RES ovarian,5.07 µM
same,TGI,NCI/ADR-RES ovarian,22.9 µM
same,GI50,MCF7 breast,6.6 µM
same,TGI,MCF7 breast,35.7 µM
same,GI50,TK-10 renal,10.4 µM
same,TGI,TK-10 renal,35.7 µM
same,GI50,NCI-H460 lung,3.93 µM
same,TGI,NCI-H460 lung,15.2 µM
same,GI50,RXF 393 renal,4.43 µM
same,TGI,RXF 393 renal,18.8 µM
same,GI50,PC-3 prostate,3.88 µM
same,TGI,PC-3 prostate,17.1 µM
same,GI50,SR leukemia,2.27 µM
same,TGI,SR leukemia,14.5 µM
same,GI50,SK-MEL-5 melanoma,11.5 µM
same,TGI,SK-MEL-5 melanoma,28 µM
same,GI50,DU-145 prostate,3.89 µM
same,TGI,DU-145 prostate,19.8 µM
same,GI50,HOP-62 NSCLC,8.29 µM
same,TGI,HOP-62 NSCLC,21.6 µM
same,GI50,EKVX NSCLC,18 µM
same,TGI,EKVX NSCLC,> 100 µM
same,GI50,K-562 leukemia,2.25 µM
same,TGI,K-562 leukemia,7.04 µM
same,GI50,HOP-92 NSCLC,10.7 µM
same,TGI,HOP-92 NSCLC,35.5 µM
same,GI50,HCT-116 colon,3.42 µM
same,TGI,HCT-116 colon,11.4 µM
same,GI50,SNB-19 CNS,6.53 µM
same,TGI,SNB-19 CNS,21.2 µM
same,GI50,A498 renal,12.7 µM
same,TGI,A498 renal,29.7 µM
same,GI50,HT29 colon,2.76 µM
same,TGI,HT29 colon,11.6 µM
same,GI50,SF-295 CNS,16.5 µM
same,TGI,SF-295 CNS,48.6 µM
same,GI50,NCI-H226 lung,11.8 µM
same,TGI,NCI-H226 lung,31.4 µM
same,GI50,CAKI-1 renal,3.58 µM
same,TGI,CAKI-1 renal,23.9 µM
same,GI50,NCI-H23 lung,8.66 µM
same,TGI,NCI-H23 lung,26.5 µM
same,GI50,MDA-MB-231 breast,8.99 µM
same,TGI,MDA-MB-231 breast,29.4 µM
same,GI50,M14 melanoma,12.4 µM
same,TGI,M14 melanoma,27.3 µM
same,GI50,RPMI-8226 leukemia,2.46 µM
same,TGI,RPMI-8226 leukemia,6.8 µM
same,GI50,SN12C renal,8.64 µM
same,TGI,SN12C renal,28.6 µM
same,GI50,OVCAR-8 ovarian,8.3 µM
same,TGI,OVCAR-8 ovarian,27.6 µM
same,GI50,MDA-MB-435,2.53 µM
same,TGI,MDA-MB-435,8.58 µM
same,GI50,LOX IMVI melanoma,3.94 µM
same,TGI,LOX IMVI melanoma,14.9 µM
same,GI50,IGROV1 ovarian,7.83 µM
same,TGI,IGROV1 ovarian,34.9 µM
same,GI50,SW-620 colon,11.1 µM
same,TGI,SW-620 colon,39.3 µM
same,GI50,KM12 colon,3.77 µM
same,TGI,KM12 colon,12.3 µM
same,GI50,OVCAR-4 ovarian,4.2 µM
same,TGI,OVCAR-4 ovarian,17.2 µM
same,GI50,A549 NSCLC,6.28 µM
same,TGI,A549 NSCLC,23.1 µM
same,GI50,UACC-257 melanoma,2.51 µM
same,TGI,UACC-257 melanoma,15 µM
same,GI50,SNB-75 CNS,4.68 µM
same,TGI,SNB-75 CNS,17.1 µM
same,GI50,ACHN renal,13.4 µM
same,TGI,ACHN renal,31.4 µM
same,GI50,HS 578T breast,19.4 µM
same,TGI,HS 578T breast,> 100 µM
same,GI50,COLO 205 colon,1.91 µM
same,TGI,COLO 205 colon,8.48 µM
same,GI50,BT-549 breast,8.63 µM
same,TGI,BT-549 breast,57.8 µM
same,GI50,MOLT-4 leukemia,3.62 µM
same,TGI,MOLT-4 leukemia,22.1 µM
same,GI50,786-0 renal,4.66 µM
same,TGI,786-0 renal,21.7 µM
same,GI50,T-47D breast,2.97 µM
same,TGI,T-47D breast,15.4 µM
same,GI50,HL-60(TB) leukemia,3.11 µM
same,TGI,HL-60(TB) leukemia,17.8 µM
same,GI50,SK-MEL-28 melanoma,4.63 µM
same,TGI,SK-MEL-28 melanoma,18.5 µM
same,GI50,HCC-2998 colon,11.3 µM
same,TGI,HCC-2998 colon,24.7 µM
same,GI50,SF-539 CNS,15.2 µM
same,TGI,SF-539 CNS,31.3 µM
